From patent publication US20250206745A1, “PYRROLOPYRIDAZINE DERIVATIVES AND RELATED USES” (NodThera Limited, priority 2023, published 2025)
Where a name gives a salt, the structure may show the parent alone.

Columns and labels:
[1] = tested on: IL-1β release upon NLRP3 activation in peripheral blood mononuclear cells (PBMC); test: PBMC IC50 Determination Assay; assay type: cell-based; conditions: Homo sapiens; inhibition of IL-1β release; PBMC primed with LPS, stimulated with ATP or nigericin; ELISA or HTRF
Procedure, shortened: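 Human buffy-coat PBMC primed 3 h with LPS (1 μg/mL in Protocol B), given compound for 30 min, then stimulated 1 h with 5 mM ATP or 10 μM nigericin (Protocol A) or 5 mM ATP (Protocol B). IL-1β in supernatant measured by ELISA at 450 nm (A) or HTRF (B).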

[2] = tested on: IL-1β release upon NLRP3 activation in phorbol 12-myristate 13-acetate (PMA)-differentiated THP-1 cells; test: THP-1 IC50 Determination Assay; assay type: cell-based; conditions: Homo sapiens, inhibition of IL-1β release, LPS, nigericin, ELISA
Procedure, shortened: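 THP-1 cells differentiated with 5 ng/mL PMA for ~40 h, plated 30,000/well and primed 2 h with 25 ng/mL LPS. Compounds added as 8-point 1:3 series (0.5% DMSO), then nigericin activation for 2 h at 37 °C; supernatant IL-1β measured by ELISA.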

| Compound | IC50 [1] | IC50 [2] |
| --- | --- | --- |
| CC(=O)N1CCCCC1Cn1ccc2cc(-c3c(C)cc(Cl)cc3O)nnc21 (centres unmarked) [Compound 57, 1-(2-{[3-(4-Chloro-2-hydroxy-6-methylphenyl)-7H-pyrrolo[2,3-c]pyridazin-7-yl]methyl}piperidin-1-yl)ethan-1-one] | 0.03 to 0.1 µM | 0.03 to 0.1 µM |
| Cc1cc(Cl)cc(O)c1-c1cc2ccn(CC(=O)N(C)C3COC3)c2nn1 [Compound 58, 2-[3-(4-Chloro-2-hydroxy-6-methylphenyl)-7H-pyrrolo[2,3-c]pyridazin-7-yl]-N-methyl-N-(oxetan-3-yl)acetamide] | 0.1 to 0.3 µM | 0.1 to 0.3 µM |
| Cc1cc(Cl)cc(O)c1-c1cc2ccn(CC(=O)N(C)[C@H]3CCOC3)c2nn1 [Compound 59, 2-[3-(4-Chloro-2-hydroxy-6-methylphenyl)-7H-pyrrolo[2,3-c]pyridazin-7-yl]-N-methyl-N-[(3S)-oxolan-3-yl]acetamide] | 0.03 to 0.1 µM | 0.1 to 0.3 µM |
| Cc1cc(Cl)cc(O)c1-c1cc2ccn(CC3CCN(C=O)CC3)c2nn1 [Compound 63, 4-{[3-(4-Chloro-2-hydroxy-6-methylphenyl)-7H-pyrrolo[2,3-c]pyridazin-7-yl]methyl}piperidine-1-carbaldehyde] | < 0.03 µM | 0.03 to 0.1 µM |
| Cc1cc(Cl)cc(O)c1-c1cc2ccn(CC3CCC(=O)N3C)c2nn1 (centres unmarked) [Compound 65, 5-{[3-(4-Chloro-2-hydroxy-6-methylphenyl)-7H-pyrrolo[2,3-c]pyridazin-7-yl]methyl}-1-methylpyrrolidin-2-one] | 0.03 to 0.1 µM | 0.03 to 0.1 µM |
| Cc1cc(Cl)cc(O)c1-c1cc2ncn(CC3CCN(C)CC3)c2nn1 [Compound 71, 5-Chloro-3-methyl-2-{7-[(1-methylpiperidin-4-yl)methyl]-7H-imidazo[4,5-c]pyridazin-3-yl}phenol] | < 0.03 µM | 0.03 to 0.1 µM |
| CC(=O)N1CCC(Cn2cnc3cc(-c4c(C)cc(Cl)cc4O)nnc32)CC1 [Compound 72, 1-(4-{[3-(4-Chloro-2-hydroxy-6-methylphenyl)-7H-imidazo[4,5-c]pyridazin-7-yl]methyl}piperidin-1-yl)ethan-1-one] | 0.03 to 0.1 µM | 0.03 to 0.1 µM |
| Cc1cc(C#N)cc(O)c1-c1cc2ncn(CC3CCN(C)CC3)c2nn1 [Compound 73, 3-Hydroxy-5-methyl-4-{7-[(1-methylpiperidin-4-yl)methyl]-7H-imidazo[4,5-c]pyridazin-3-yl}benzonitrile] | 0.1 to 0.3 µM | 0.3 to 1 µM |
| Cc1cc(Cl)cc(O)c1-c1cc2ncn(C[C@H]3CCN(C)C3)c2nn1 [Compound 74, 5-Chloro-3-methyl-2-(7-{[(3S)-1-methylpyrrolidin-3-yl]methyl}-7H-imidazo[4,5-c]pyridazin-3-yl)phenol hydrochloride] | 0.03 to 0.1 µM | 0.03 to 0.1 µM |
| Cc1cc(Cl)cc(O)c1-c1cc2ncn(C[C@@H]3CCN(C)C3)c2nn1 [Compound 75, 5-Chloro-3-methyl-2-(7-{[(3R)-1-methylpyrrolidin-3-yl]methyl}-7H-imidazo[4,5-c]pyridazin-3-yl)phenol hydrochloride] | 0.03 to 0.1 µM | 0.1 to 0.3 µM |
| Cc1cc(C)c(-c2cc3ncn(CC4CCN(C)CC4)c3nn2)c(O)c1 [Compound 76, 3,5-Dimethyl-2-{7-[(1-methylpiperidin-4-yl)methyl]-7H-imidazo[4,5-c]pyridazin-3-yl}phenol] | 0.03 to 0.1 µM | 0.03 to 0.1 µM |
| Cc1cc(Cl)cc(O)c1-c1cc2ncn(CC(=O)N(C)C)c2nn1 [Compound 77, 2-[3-(4-Chloro-2-hydroxy-6-methylphenyl)-7H-imidazo[4,5-c]pyridazin-7-yl]-N,N-dimethylacetamide] | 0.03 to 0.1 µM | 0.1 to 0.3 µM |
| Cc1cc(Cl)cc(O)c1-c1cc2ncn(CC3(F)CCN(C)CC3)c2nn1 [Compound 78, 5-Chloro-2-{7-[(4-fluoro-1-methylpiperidin-4-yl)methyl]-7H-imidazo[4,5-c]pyridazin-3-yl}-3-methylphenol hydrochloride] | 0.03 to 0.1 µM | 0.03 to 0.1 µM |
